The text below walks through data of US7435837B2, “Dihydrobenzofuranyl alkanamine derivatives and methods for using same” (Wyeth, priority 2003, dated 2008).

Where “and” joins values, the source holds several entries; their conditions need not be identical. Equal entries are not always repeated. Structures can show the parent of a compound that is named as a salt.

Consider `NCC1Cc2cccc(-c3ccc(F)cc3F)c2O1` (racemic) (as salt: hydrochloride) [Example 146, (±)-1-[7-(2,4-difluorophenyl)-2,3-dihydro-1-benzofuran-2-yl]methanamine], for which the melting point lay in the range of 222 to 224 °C.

In turn, `NCC1Cc2ccc(-c3ccccc3)cc2O1` (racemic) (as salt: hydrobromid) [Example 31, (±)-(6-phenyl-2,3-dihydro-1-benzofuran-2-yl)methanamine] gave a melting point of 218 to 221 °C.

With `NCC1Cc2cc(Cl)cc(-c3ccsc3)c2O1` (racemic) (as salt: hydrochloride) [Example 90, (±)-(5-chloro-7-thien-3-yl-2,3-dihydro-1-benzofuran-2-yl)methylamine], the melting point is 230 °C (dec.).

As for `COc1cccc2c1OC(CN)C2` (racemic) (as salt: hydrochloride) [Example 7, (±)-1-(7-methoxy-2,3-dihydro-1-benzofuran-2-yl)methanamine], the melting point was in the range of 168 to 171 °C.

In turn, `NCC1Cc2cccc(-c3ccsc3)c2O1` (racemic) (as salt: hydrochloride) [Example 44, (±)-1-(7-thien-3-yl-2,3-dihydro-1-benzofuran-2-yl)methanamine] showed a melting point greater than 200 °C.

Compound `NCC1Cc2cccc(-c3c(F)cccc3F)c2O1` (racemic) (as salt: hydrochloride) [Example 139, (±)-1-[7-(2,6-difluorophenyl)-2,3-dihydro-1-benzofuran-2-yl]methanamine] returned a melting point of 219 to 222 °C.

As for `CC(C)c1ccccc1-c1cccc2c1OC(CN)C2` (racemic) (as salt: hydrochloride) [Example 61, (±)-[7-(2-isopropylphenyl)-2,3-dihydro-1-benzofuran-2-yl]methylamine], the melting point fell in the range of 202 to 204 °C.

Consider `NC[C@H]1Cc2cc(F)cc(-c3c(Cl)cccc3Cl)c2O1` (as salt: hydrochloride) [Example 550, (−)-{[7-(2,6-dichlorophenyl)-5-fluoro-2,3-dihydro-1-benzofuran-2-yl]methyl}amine], for which the melting point is 228 to 230 °C and 231 to 233 °C.

Consider `NCC1Cc2cc(F)cc(-c3ccccc3F)c2O1` (racemic) (as salt: hydrochloride) [Example 107, (±)-1-[5-fluoro-7-(2-fluorophenyl)-2,3-dihydro-1-benzofuran-2-yl]methanamine], for which the melting point was 240 to 247 °C (dec.).

Turning to `NCC1Cc2cccc(CCc3ccccc3)c2O1` (racemic) (as salt: hydrochloride) [Example 120, (±)-1-[7-(2-phenylethyl)-2,3-dihydro-1-benzofuran-2-yl]methanamine], the melting point was 155 to 157 °C.

For `NCC1Cc2cccc(-c3ccc(C(F)(F)F)cc3)c2O1` (single isomer, unassigned; (+)) (as salt: hydrochloride) [Example 137, (+)-1-{7-[4-(trifluoromethyl)phenyl]-2,3-dihydro-1-benzofuran-2-yl}methanamine], the melting point lay within 226 to 229 °C.

In the case of `NCC1Cc2cccc(-c3ccccc3)c2O1` (racemic) (as salt: hydrochloride) [Example 36, (±)-1-(7-phenyl-2,3-dihydro-1-benzofuran-2-yl)methanamine], the melting point is > 200 °C (dec.).

The compound `NCC1Cc2cccc(-c3ccsc3)c2O1` (single isomer, unassigned; (+)) (as salt: hydrobromid) [Example 45, (+)-1-(7-thien-3-yl-2,3-dihydro-1-benzofuran-2-yl)methanamine] had a melting point of 234 to 236 °C.

On to `NCC1Cc2cccc(Cc3ccccc3)c2O1` (single isomer, unassigned; (+)) (as salt: hydrochloride) [Example 16, (+)-1-(7-benzyl-2,3-dihydro-1-benzofuran-2-yl)methanamine], for which the melting point was in the range of 128 to 131 °C.

In the case of `COc1cc2c(c(C(C)(C)C)c1)OC(CN)C2` (racemic) (as salt: hydrochloride) [Example 13, (±)-(7-tert-butyl-5-methoxy-2,3-dihydro-1-benzofuran-2-yl)methylamine], the melting point lay within 174 to 176 °C.

For `NCC1Cc2c(cccc2-c2ccccc2)O1` (single isomer, unassigned; (-)) (as salt: hydrobromid) [Example 3, (−)-1-(4-phenyl-2,3-dihydro-1-benzofuran-2-yl)methanamine], the melting point fell in the range of 227 to 228 °C.

`NCC1Cc2c(F)ccc(-c3ccccc3)c2O1` (racemic) (as salt: hydrochloride) [Example 98, (±)-1-(4-fluoro-7-phenyl-2,3-dihydro-1-benzofuran-2-yl)methanamine] registered a melting point of 254 to 257 °C.

`CC(C)c1ccccc1-c1cccc2c1OC(CN)C2` (single isomer, unassigned; (+)) (as salt: hydrochloride) [Example 62, (+)-[7-(2-isopropylphenyl)-2,3-dihydro-1-benzofuran-2-yl]methylamine]: the melting point is 205 to 206 °C.

Take `NCC1Cc2cccc(-c3ccc(Cl)cc3Cl)c2O1` (single isomer, unassigned; (+)) (as salt: hydrochloride) [Example 150, (+)-1-[7-(2,4-dichlorophenyl)-2,3-dihydro-1-benzofuran-2-yl]methanamine]: the melting point lay within 201 to 204 °C.

Consider `NCC1Cc2cc(Cl)cc(-c3ccccc3)c2O1` (single isomer, unassigned; (+)) (as salt: hydrobromid) [Example 85, (+)-1-(5-chloro-7-phenyl-2,3-dihydro-1-benzofuran-2-yl)methanamine], for which the melting point was 201 to 203 °C.

In the case of `NCC1Cc2cccc(-c3ccc(Cl)cc3Cl)c2O1` (single isomer, unassigned; (-)) (as salt: hydrochloride) [Example 149, (−)-1-[7-(2,4-dichlorophenyl)-2,3-dihydro-1-benzofuran-2-yl]methanamine], the melting point was in the range of 203 to 206 °C.

`NCC1Cc2cccc(-c3cccc(F)c3)c2O1` (single isomer, unassigned; (+)) (as salt: hydrochloride) [Example 131, (+)-1-[7-(3-fluorophenyl)-2,3-dihydro-1-benzofuran-2-yl]methanamine] had a melting point of 186 to 188 °C.

`NCC1Cc2c(cccc2-c2ccccc2C(F)(F)F)O1` (racemic) (as salt: hydrochloride) [Example 122, (±)-1-{4-[2-(trifluoromethyl)phenyl]-2,3-dihydro-1-benzofuran-2-yl}methanamine]: the melting point lay in the range of 213 to 215 °C.

Compound `COc1ccc(-c2cccc3c2OC(CN)C3)cc1` (single isomer, unassigned; (+)) (as salt: hydrochloride) [Example 80, (+)-1-[7-(4-methoxyphenyl)-2,3-dihydro-1-benzofuran-2-yl]methanamine] had a melting point of 183 to 186 °C.

On to `NCC1Cc2cccc(Cc3ccccc3)c2O1` (racemic) (as salt: hydrochloride) [Example 15, (±)-1-(7-benzyl-2,3-dihydro-1-benzofuran-2-yl)methanamine], for which the melting point is 107 to 111 °C (dec.).

With `Cc1ccccc1-c1cccc2c1OC(CN)C2` (single isomer, unassigned; (+)) (as salt: hydrochloride) [Example 48, (+)-1-[7-(2-methylphenyl)-2,3-dihydro-1-benzofuran-2-yl]methanamine], the melting point is 211 to 212 °C.

Regarding `Cc1ccccc1-c1cc(Cl)cc2c1OC(CN)C2` (racemic) (as salt: salt) [Example 95, (±)-1-[5-chloro-7-(2-methylphenyl)-2,3-dihydro-1-benzofuran-2-yl]methanamine], the melting point lay in the range of 160 to 163 °C.

Compound `Cc1ccccc1-c1cc(Cl)cc2c1OC(CN)C2` (single isomer, unassigned; (+)) (as salt: hydrobromid) [Example 96, (+)-1-[5-chloro-7-(2-methylphenyl)-2,3-dihydro-1-benzofuran-2-yl]methanamine] registered a melting point of 170 to 172 °C.

As to `NCC1Cc2cccc(-c3ccccc3)c2O1` (single isomer, unassigned; (-)) (as salt: hydrochloride) [Example 38, (−)-1-(7-phenyl-2,3-dihydro-1-benzofuran-2-yl)methanamine], the melting point was in the range of 220 to 222 °C.

With `NCC1Cc2cccc(-c3ccccc3C(F)(F)F)c2O1` (single isomer, unassigned; (+)) (as salt: hydrochloride) [Example 55, (+)-1-{7-[2-(trifluoromethyl)phenyl]-2,3-dihydro-1-benzofuran-2-yl}methanamine], the melting point was in the range of 97 to 100 °C.

`Cc1ccccc1-c1cccc2c1OC(CN)C2` (racemic) (as salt: hydrochloride) [Example 47, (±)-1-[7-(2-methylphenyl)-2,3-dihydro-1-benzofuran-2-yl]methanamine] displayed a melting point greater than 200 °C.

On to `NCC1Cc2cccc(-c3cc(C(F)(F)F)cc(C(F)(F)F)c3)c2O1` (racemic) (as salt: hydrochloride) [Example 32, (±)-1-{7-[3,5-bis(trifluoromethyl)phenyl]-2,3-dihydro-1-benzofuran-2-yl}methanamine], for which the melting point is 174 to 175 °C (dec.).

Compound `Cc1ccc(-c2cccc3c2OC(CN)C3)cc1` (racemic) (as salt: hydrochloride) [Example 70, (±)-1-[7-(4-methylphenyl)-2,3-dihydro-1-benzofuran-2-yl]methanamine] had a melting point of 231 to 232 °C.

`NCC1Cc2cccc(-c3ccc(C(F)(F)F)cc3)c2O1` (racemic) (as salt: hydrochloride) [Example 82, (±)-1 {7-[4-(trifluoromethyl)phenyl]-2,3-dihydro-1-benzofuran-2-yl}methanamine] showed a melting point greater than 250 °C.

Take `Cc1ccc(-c2cccc3c2OC(CN)C3)cc1` (single isomer, unassigned; (+)) (as salt: hydrobromid) [Example 71, (+)-1-[7-(4-methylphenyl)-2,3-dihydro-1-benzofuran-2-yl]methanamine]: the melting point was greater than 250 °C.

For orientation: melting point means the temperature, or range, at which the solid turns liquid.
